Here are results for 14 compounds from ChEMBL document CHEMBL1133385, “The de novo design and synthesis of cyclic urea inhibitors of factor Xa: optimization of the S4 ligand” (Bioorg Med Chem Lett, 2000).

Each structure is given as a SMILES string.

One data set addresses Prothrombin (Homo sapiens, UniProt P00734). The data set can be described thus: Inhibitory activity against thrombin.
Another data set addresses Coagulation factor X (Homo sapiens, UniProt P00742). Briefly: Inhibition of coagulation factor Xa.
The target in another data set is Serine protease 1 (Homo sapiens, UniProt P07477). Briefly: Inhibitory activity against trypsin.
Chain of Serine protease 1 (P07477 whole entry): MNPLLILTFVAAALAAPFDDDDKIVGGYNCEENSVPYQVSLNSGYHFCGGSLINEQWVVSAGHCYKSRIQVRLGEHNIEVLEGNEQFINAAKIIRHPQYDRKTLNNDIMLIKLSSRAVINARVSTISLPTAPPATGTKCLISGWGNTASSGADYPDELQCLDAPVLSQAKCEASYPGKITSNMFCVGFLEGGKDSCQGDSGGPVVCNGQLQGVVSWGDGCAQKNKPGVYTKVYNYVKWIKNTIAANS
Data set [1] is described as follows: Maximum plasma concentration was determined in rabbit at a dose of 5 mg/kg/h administered i.v. Type of data set: ADME, organism-based, Oryctolagus cuniculus. Details: dose 5 mg/kg/h, route intravenous. Particulars: iv.
A short description of data set [2]: The compound was evaluated for volume of distribution in rabbit at a dose of 5 mg/kg/h administered i.v. Type of data set: ADME, organism-based, Oryctolagus cuniculus. Also noted: route intravenous. The settings on record: in vivo, iv.
Data set [3] in a line: Half life period was determined. The settings on record: rabbit.
Data set [4] can be described thus: Plasma clearance was determined in rabbit at a dose of 5 mg/kg/h administered i.v. Type of data set: ADME, organism-based, Oryctolagus cuniculus. Also noted: route intravenous. The settings on record: iv.

Chain of Coagulation factor X (P00742 41-179 limits assumed): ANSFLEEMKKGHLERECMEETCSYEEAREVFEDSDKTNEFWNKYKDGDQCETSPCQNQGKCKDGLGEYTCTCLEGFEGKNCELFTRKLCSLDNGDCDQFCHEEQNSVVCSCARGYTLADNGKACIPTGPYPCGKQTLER
Chain of Coagulation factor X (P00742 235-488 limits assumed): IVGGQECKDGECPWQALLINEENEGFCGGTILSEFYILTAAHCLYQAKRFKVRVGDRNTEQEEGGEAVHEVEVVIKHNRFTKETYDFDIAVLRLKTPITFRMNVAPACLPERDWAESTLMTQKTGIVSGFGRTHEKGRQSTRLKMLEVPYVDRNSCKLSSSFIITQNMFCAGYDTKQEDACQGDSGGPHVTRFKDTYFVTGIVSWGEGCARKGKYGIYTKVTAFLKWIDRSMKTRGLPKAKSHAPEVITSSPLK

As to `N=C(N)c1cccc(N2CCCCN(C3CCN(C(=O)c4ccccc4)CC3)C2=O)c1`, the inhibition constant Ki on Prothrombin was over 21000 nM.

On to `N=C(N)c1cccc(N2CCCCN(C3CCN(Cc4cccs4)CC3)C2=O)c1`, for which the results for the inhibition constant Ki on Coagulation factor X, on Prothrombin and at Serine protease 1 were 80 nM, 1400 nM and 170 nM, respectively.

As to `N=C(N)c1cccc(N2CCCCN(C3CCN(S(=O)(=O)c4ccccc4)CC3)C2=O)c1`, the Ki came out at 24 nM on Coagulation factor X, 1600 nM at Prothrombin and 60 nM at Serine protease 1.

With `N=C(N)c1cccc(N2CCCCN(C3CCN(C(=O)Cc4ccccc4)CC3)C2=O)c1`, the Ki worked out at 900 nM at Coagulation factor X and 11800 nM at Prothrombin.

In the case of `N=C(N)c1cccc(N2CCCCN(C3CCN(S(=O)(=O)Cc4ccccc4)CC3)C2=O)c1.O=C(O)C(F)(F)F`, the peak concentration (Cmax) in data set [1] amounted to 4.8 µM. Besides, the inhibition constant (Ki) at Coagulation factor X is 10 nM; on Prothrombin it was 500 nM; at Serine protease 1, 80 nM. Moreover, the volume of distribution (Vd) in data set [2] is 0.23 L/kg. Further, in data set [3], the half-life is 2.4 min. This compound also gave a clearance in data set [4] of 68.3 mL/min/kg.

For `Cl.N=C(N)c1cccc(N2CCCCN(C3CCN(S(=O)(=O)c4cccs4)CC3)C2=O)c1`, the concentration in data set [1] peaked (Cmax) at 36 µM. In addition, the inhibition constant Ki is 12 nM at Coagulation factor X, 1500 nM on Prothrombin and 52 nM at Serine protease 1. Further, the volume of distribution (Vd) in data set [2] was 1.1 L/kg. For the same compound, the half-life in data set [3] is 66 min. The compound also gave a clearance in data set [4] of 11.3 mL/min/kg.

As for `N=C(N)c1cccc(N2CCCCN(C3CCN(S(=O)(=O)c4cccc(N)c4)CC3)C2=O)c1`, the Ki at Coagulation factor X turned out to be 200 nM; at Prothrombin it was 2200 nM.

`N=C(N)c1cccc(N2CCCCN(C3CCN(S(=O)(=O)c4ccccc4N)CC3)C2=O)c1`: the Ki came to 34 nM on Coagulation factor X, 2400 nM on Prothrombin and 130 nM at Serine protease 1.

With `N=C(N)c1cccc(N2CCCCN(C3CCN(S(=O)(=O)Cc4ccccn4)CC3)C2=O)c1.O=C(O)C(F)(F)F.O=C(O)C(F)(F)F`, the concentration in data set [1] peaked (Cmax) at 2.4 µM. Also, the Ki at Coagulation factor X was 10 nM; at Prothrombin, 500 nM; at Serine protease 1, 57 nM. Besides, the Vd in data set [2] came out at 0.34 L/kg. For the same compound, the half-life in data set [3] is 1.8 min. This compound also had a clearance in data set [4] of 132 mL/min/kg.

Consider `N=C(N)c1cccc(N2CCCCN(C3CCN(Cc4ccncc4)CC3)C2=O)c1`, for which the values for the inhibition constant (Ki) at Coagulation factor X and on Prothrombin were 200 nM and 6800 nM, respectively.

As for `N=C(N)c1cccc(N2CCCCN(C3CCN(Cc4cccnc4)CC3)C2=O)c1`, the figures for the inhibition constant (Ki) on Coagulation factor X and at Prothrombin were 670 nM and 5300 nM, respectively.

Consider `N=C(N)c1cccc(N2CCCCN(C3CCN(Cc4ccccn4)CC3)C2=O)c1`, for which the inhibitory constant (Ki) on Coagulation factor X was 12 nM; on Prothrombin, 2600 nM; on Serine protease 1, 120 nM.

In the case of `N=C(N)c1cccc(N2CCCCN(C3CCN(S(=O)(=O)c4ccc(N)cc4)CC3)C2=O)c1`, the Ki at Coagulation factor X turned out to be 71 nM; on Prothrombin it was 6300 nM; at Serine protease 1, 190 nM.

`N=C(N)c1cccc(N2CCCCN(C3CCN(CCc4ccccc4)CC3)C2=O)c1`: the Ki is 220 nM on Coagulation factor X, 3600 nM at Prothrombin and 1000 nM at Serine protease 1.

The Ki is the dissociation constant of the complex between target and ligand, obtained from inhibition or displacement. Higher therefore signals a looser hold on the target. A word on the Cmax: it is the maximum level reached in the sampled fluid or tissue. One may read the Vd as a proportionality between amount in the body and measured concentration, not a real space. The term half-life denotes the time in which the quantity being followed falls by half. By clearance is commonly meant a measure of how efficiently the substance is removed, as volume per time.
